# Experiments:
# [1] = biological target: T1, neutrophil collagenase (MMP-8) (Homo sapiens, UniProt P22894); assay: Anticollagenase assay; format: biochemical; conditions: mean of three measurements
# T1 construct: from tissue; host or cells: human neutrophils
# Description: (§1) Human recombinant matrix metalloproteinase-MMP-1) pro-enzyme, expressed in mammalian cells, and human nutrophil MMP-8 pro-enzyme were activated with 4-aminophenylmercuric acetate for 60 min 37 1 C, respectively (Knight et al. 1992 FEBS Lett. 296: 263-266). Hop components and vehicle were preincubated with 5 nM MMP- and 6 nM MMP-8 active enzymes in a modified MOPS buffer, pH 7.2, for 60 minutes at 37 C. The reaction was initiated by addition of […] Mca-Pro-Leu-Gly-Leu-Dpa-Ala-Arg for another 120-minute incubation period. The determination of the amount of Mca-Pro-Leu-Gly formed was read spectrofluorimetrically at 340/400 nm. Tissue inhibitors of metalloproteinase TIMP-1 and TIMP-2 were used as positive controls (Olson et 1997 J. Biol. Chem. 272: 29975-29983).
# [2] = biological target: T2, interstitial collagenase (MMP-1) (Homo sapiens, UniProt P03956); assay: Anticollagenase assay; format: biochemical; conditions: mean of three measurements
# T2 construct: host or cells: mammalian cells
# T2 sequence (P03956 100-469): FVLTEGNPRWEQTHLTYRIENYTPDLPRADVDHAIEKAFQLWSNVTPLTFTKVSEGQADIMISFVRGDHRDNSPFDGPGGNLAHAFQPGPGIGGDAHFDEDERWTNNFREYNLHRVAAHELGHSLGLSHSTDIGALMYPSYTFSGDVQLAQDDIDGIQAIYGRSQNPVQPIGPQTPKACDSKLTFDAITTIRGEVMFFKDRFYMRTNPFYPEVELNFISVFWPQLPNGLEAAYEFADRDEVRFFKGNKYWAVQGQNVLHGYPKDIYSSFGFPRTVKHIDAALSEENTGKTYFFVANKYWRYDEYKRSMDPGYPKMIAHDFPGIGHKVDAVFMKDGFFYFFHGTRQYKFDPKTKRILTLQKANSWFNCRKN
# Description: as §1
# [3] = HORAC hydroxyl radical ORAC; conditions: FIG. 2 radar chart
# Description: [table] […] The SOAC scores are not included in this figure; ORAC values used are the sum of lipophilic and hydrophilic results. For each assay category, scaling was made logarithmic so that the plot on the chart resembles the associated rating. […] The larger the spatial area, the higher the overall antioxidative capacity. […] Both hydrophilic and lipophilic oxygen radical absorbance capacity (ORAC) assays were carried out at Brunswick Laboratory (Wareham, Mass.) based on the modified ORACfl method reported by Ou et al. (2001 J. Agric. Food Chem. 49: 4619-4626, 2002 J. Agr. Food Chem. 50: 3122-3128). Trolox, a water-soluble vitamin E analog, was used as the calibration standard. The data are expressed as mmole of Trolox equivalents per gram (mmol TE/g). The acceptable precision of the ORAC assay is a 15% relative standard deviation. […] Hydroxyl radical ORAC (HOR-AC) is expressed as mmole caffeic acid equivalent per gram (mmol CAE/g). […] The peroxyl nitrite ORAC (NORAC) result is expressed as mmol TE/g. Alpha-tocopherol (vitamin E) was used as the calibration standard, and the singlet oxygen absorbance capacity (SOAC) result is expressed as mmole a-tocopherol equivalent (mmol VtE) per gram (Aubry et al. 1989). […] Radical-scavenging activity was measured by the change in absorbance at 517 nm with the DPPH result expressed as mmol TE/g. […] The FRAP result is expressed as mmol TE/g (Ou et al. 2002b). […]
# [4] = ORAC-Total (ORAClipo + ORAChydro)
# Source text: An ORAC method for lipophilic antioxidants was further developed and validated using fluorescein as the fluorescent probe (Prior et al. 2003 J. Agric. Food Chem. 51: 3273-3279). This method has the advantage that similar assay conditions and standards can be used for both hydrophilic and lipophilic antioxidant components, such that the two values can be added together to obtain a total antioxidant capacity. In the present work, the ORAC value is expressed as the sum of values of both the water-soluble and fat-soluble parts. Green tea catechins (Polyphenon 60) were used as the control with the highest ORAC value among edible plants. Vitamin C and vitamin E were used as controls for water- and fat-soluble molecules, respectively. […] The SOAC scores are not included in this figure; ORAC values used are the sum of lipophilic and hydrophilic results. For each assay category, scaling was made logarithmic so that the plot on the chart resembles the associated rating. […] The larger the spatial area, the higher the overall antioxidative capacity. […] Both hydrophilic and lipophilic oxygen radical absorbance capacity (ORAC) assays were carried out at Brunswick Laboratory (Wareham, Mass.) based on the modified ORACfl method reported by Ou et al. (2001 J. Agric. Food Chem. 49: 4619-4626, 2002 J. Agr. Food Chem. 50: 3122-3128). Trolox, a water-soluble vitamin E analog, was used as the calibration standard. The data are expressed as mmole of Trolox equivalents per gram (mmol TE/g). The acceptable precision of the ORAC assay is a 15% relative standard deviation. Caffeic acid was used as the calibration standard. Hydroxyl radical ORAC (HOR-AC) is expressed as mmole caffeic acid equivalent per gram (mmol CAE/g). Trolox was used as the calibration standard. The peroxyl nitrite ORAC (NORAC) result is expressed as mmol TE/g. Alpha-tocopherol (vitamin E) was used as the calibration standard, and the singlet oxygen absorbance capacity (SOAC) result is expressed as mmole a-tocopherol equivalent (mmol VtE) per gram (Aubry et al. 1989). The abbreviation for the 1,1-diphenyl-2-picrylhydrazyl radical is DPPH. Radical-scavenging activity was measured by the change in absorbance at 517 nm with the DPPH result expressed as mmol TE/g. Similarly, FRAP is an abbreviation for the ferric reducing antioxidative power method, which utilizes chemical conversion of the yellow Fe 3+-2,4,6-tripyridyl s-triazine (TPTZ) complex to the blue Fe 2+-TPTZ complex by electron donation under acidic conditions (Okada and Okada 1998 J. Agric. Food Chem. 46: 401-406). The FRAP result is expressed as mmol TE/g (Ou et al. 2002b). Superoxide dismutase (SOD) was used as a calibration standard; the SOD result is expressed as kilo unit SOD equivalent (kunitSODeq) per gram.
# T1 sequence (P22894 101-467): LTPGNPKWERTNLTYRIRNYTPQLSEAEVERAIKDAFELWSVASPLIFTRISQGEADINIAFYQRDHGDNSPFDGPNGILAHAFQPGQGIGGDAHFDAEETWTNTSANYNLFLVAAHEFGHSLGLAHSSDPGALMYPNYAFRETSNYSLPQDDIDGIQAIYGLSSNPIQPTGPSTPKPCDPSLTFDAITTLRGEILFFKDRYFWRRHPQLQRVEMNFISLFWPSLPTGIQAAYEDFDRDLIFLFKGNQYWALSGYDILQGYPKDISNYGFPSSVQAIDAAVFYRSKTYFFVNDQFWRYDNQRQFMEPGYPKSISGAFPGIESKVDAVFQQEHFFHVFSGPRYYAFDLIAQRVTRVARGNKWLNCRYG
smiles,measurement,setting,value
"COc1cc(O)c(CC=C(C)C)c(O)c1C(=O)/C=C/c1ccc(O)cc1 [Xanthohumol (7), 3′-[3,3-dimethylallyl]-2′,4′,4-trihydroxy-6′-methoxychalcone]",Inhibitory ratio (%) MMP-8,[1]; 10 μg/mL,31%
same,Inhibitory ratio (%) MMP-8,[1]; 30 μg/mL,70%
same,Inhibitory ratio (%) MMP-8,[1]; 100 μg/mL,99%
same,Inhibitory ratio (%) MMP-1,[2]; 10 μg/mL,25%
same,Inhibitory ratio (%) MMP-1,[2]; 30 μg/mL,65%
same,Inhibitory ratio (%) MMP-1,[2]; 100 μg/mL,91%
same,"quenching activity against hydroxyl radical (HORAC), rank among hop components",[3],highest quenching activity
same,"quenching activity against peroxyl radical (ORAC-total), rank among hop components",[4]; FIG. 2 radar chart,highest quenching activity
same,ORAC-Total (Trolox equivalent),[4]; ORAClipo + ORAChydro,4.2 Trolox equivalent

# From patent US20110207697A1, “XANTHOHUMOL COMPOSITIONS AND METHODS FOR TREATING SKIN DISEASES OR DISORDERS” (Betal, LLC, priority 2008, published 2011)
